Tested on: ACHN ccRCC pulmonary metastasis
Experiment: ACHN pulmonary metastasis model
Assay type: in vivo, athymic nude mice
Conditions: 180 mg/kg in chow, 28 days
Experimental: SCD1 expression correlates with poor cancer patient outcomes as evidenced by decreased survival in multiple cancers including gastric, lung, ovarian and renal cell carcinoma (Figure 5a-5b, Supplementary Figure 9a-9b). […] Our findings in thyroid carcinoma similarly present discordancy between tumor response to SCD1 inhibitors and SCD1 expression. SSI-4 was tested in vivo for anti-tumorigenic activity.
Figure 5 SSI-4 attenuates tumor progression Kaplan Meier survival analysis of indicated subtypes of (a) gastric and (b) lung cancer patients sorted into high versus low SCD1 mRNA expression, for multiple disease subtypes. Patient risk assessment at indicated mean follow-up is shown. […] (h) Tumor burden of ACHN pulmonary metastasis in response to SSI-4 treatment (180mg/kg) measured by ex vivo bioluminescent flux, given in photons/second (n=5 per group). ([…]) Tumor burden of ACHN pulmonary metastasis as determined by H&E staining of lungs from (h).
ACHN cells were infected with pSIN Luc Ub Emerald GFP lentivirus construct, a kind gift from Dr. Yasuhiro Ikeda (Mayo Clinic). […] Lesion width was calculated as the mean of all nodules measured (7-12 per mouse), identified by H&E staining.
A498 cells were injected subcutaneously in the flank of athymic nude mice at 1x10^6/mouse. […] Tumor burden was measured using calipers. […]

SMILES: CNC(=O)c1ccnc(NC(=O)N2CCC(Oc3ccccc3Cl)CC2)c1 [SSI-4]
- pulmonary metastasis formation of ACHN ccRCC: reduced
